What was measured:
[1] = test system: ulcerative colitis model (dextran sodium sulphate); experiment: Effect Example 3: therapeutic effect on ulcerative colitis, dextran sodium sulphate model, oral gavage, 7 days; type: in vivo, C57 mice; conditions: 40 mg/kg oral gavage
Protocol: Fifty 10-week-old male C57 mice, SPF class animal house, temperature 20-26° C., humidity 40%-70%, alternating light-dark periods (12 h/12 h).
(§1) Quarantine-qualified animals with similar weights were selected for the experiment.
Mice in the blank control group were given normal drinking water throughout the experiment. The other 9 groups of mice were given drinking water containing 2% dextran sodium sulphate from day 1 to day 7. All groups were administered by oral gavage once a day according to table 10, until the end of the experiment.
(§2) (1) The mice were weighed daily.
(2) Blood samples were collected from the orbital vein on day 7 and stored at −80° C.
(3) On day 7, the mice were sacrificed by cervical vertebra dislocation, the colon was removed and a small amount of fecal was taken from the colon and left as a sample. The colon length and colon weight were measured. A portion of the colon and the fecal sample was stored at −80° C.

[2] = test system: ulcerative colitis model (dextran sodium sulphate); experiment: Effect example 2: therapeutic effect on ulcerative colitis, dextran sodium sulphate model, oral gavage, 14 days; type: in vivo, C57 mice; conditions: treatment group 40 mg/kg oral gavage
Protocol: Thirty-five 10-week-old male C57 mice, SPF class animal house, temperature 20-26° C., humidity 40%-70%, alternating light-dark periods (12 h/12 h).
as §1
Mice in the blank control group were given normal drinking water throughout the experiment. The other 6 groups of mice were given drinking water containing 2% dextran sodium sulphate from day 1 to day 5, normal drinking water from day 6 to day 7, drinking water containing 2% dextran sodium sulphate from day 8 to day 12, and normal drinking water from day 13 to day 14. The experiment ended on day 14. All groups were administered by oral gavage once a day according to table 7, until the end of the experiment on day 14.
as §2
(2) Blood samples were collected from the orbital vein on day 14 and stored at −80° C.
(3) On day 14, the mice were sacrificed by cervical vertebra dislocation, the colon was removed and a small amount of fecal was taken from the colon and left as a sample. The colon length and colon weight were measured. A portion of the colon and the fecal sample was stored at −80° C.

## CC(=O)OC[C@H]1O[C@@H](OC2=C(C)OC(=C(C)C)C2=O)[C@H](OC(C)=O)[C@@H](OC(C)=O)[C@@H]1OC(C)=O [Compound I-2, 4-O-[(2,3,4,6-tetra-O-acetyl)-β-D-glucosyl]-5-methyl-2-(1-methylethylidene)-3(2H)-furanone]
[1]; Day 1
  Average weight of mice: 21.53 g
[1]; Day 2
  Average weight of mice: 21.42 g
[1]; Day 3
  Average weight of mice: 21.25 g
[1]; Day 4
  Average weight of mice: 20.97 g
[1]; Day 5
  Average weight of mice: 20.72 g
[1]; Day 6
  Average weight of mice: 20.27 g
[1]; Day 7
  Average weight of mice: 19.27 g
[1]; day 7
  Average colon length of mice: 5.8 cm
[2]; Day 1
  Average weight of mice: 26.86 g
[2]; Day 2
  Average weight of mice: 26.9 g
[2]; Day 3
  Average weight of mice: 26.82 g
[2]; Day 4
  Average weight of mice: 26.86 g
[2]; Day 5
  Average weight of mice: 26.58 g
[2]; Day 6
  Average weight of mice: 26.48 g
[2]; Day 7
  Average weight of mice: 25.18 g
[2]; Day 8
  Average weight of mice: 23.78 g
[2]; Day 9
  Average weight of mice: 23.64 g
[2]; Day 10
  Average weight of mice: 23.64 g
[2]; Day 11
  Average weight of mice: 24.72 g
[2]; Day 12
  Average weight of mice: 24.82 g
[2]; Day 13
  Average weight of mice: 24.8 g
[2]; Day 14
  Average weight of mice: 24.92 g
[2]; day 14
  Average colon length of mice: 6.2 cm

Source: US20230092001A1, “FURANEOL GLYCOSIDE COMPOUND, PHARMACEUTICAL COMPOSITION THEREOF, PREPARATION METHOD THEREFOR, AND APPLICATION THEREOF” (priority 2019, published 2023)
